The values below come from patent US20230128252A1, “PHARMACEUTICAL COMPOSITIONS” (Shenzhen Pharmacin Co., Ltd., priority 2020, published 2023).

Values after ≈ are worked out from the molar mass of the structure shown.

Data set [1] is described as follows: blood concentration after topical application in minipigs. Format: in vivo, Bama minipigs. The procedure: Studies were performed to evaluate the blood concentration-time curve after topical application of Formulations 10-12 (clofazimine 0.01%, 0.03% and 0.1%) in Bama minipigs. 24 Bama minipigs (12 male and 12 female) were randomly divided into 4 groups (n=6), three groups received a single topical application of Formulations 10-12 (clofazimine 0.01%, 0.03% and 0.1%). […] In above 4 groups, Formulations 10-12 were applicated to 5% body surface area of Bama minipigs, that is, 1.5 mg ointment/cm^2 (corresponding to 0.15, 0.45, 1.5 μg API/cm^2 respectively). […] A validated LC-MS/MS method was used to determine the concentration of clofazimine in plasma and the pharmacokinetic parameters were calculated (the standard curve range of clofazimine is 0.0100˜10.0 ng/mL).

A short description of data set [2]: Solubility of clofazimine in aqueous media. Particulars: aqueous medium, aqueous with cosolvent or surfactant or cyclodextrin, thermodynamic from solid; pH 4.5 + 0.25% SDS, 25° C. Format: physicochemical.
Experimental: Clofazimine was added to various aqueous media, at various pH values (2-5 mL) in a 10 mL glass vial, at 25° C., with stirring. […] This cycle was repeated until no further dissolution was observable. The suspension was then centrifuged and the supernatant filtered by microfiltration.
Data set [3] can be described thus: Solubility of clofazimine in fatty acids. Format: physicochemical. The settings on record: fatty acid, 25 °C.
For data set [4] the following is noted: cited from earlier work.
The subject of data set [5] is chronic discoid lupus erythematosus. The settings on record: human clinical study; cited from earlier work.

The term solubility denotes the dissolved amount per volume that the medium holds. As usually defined, the Log P is a log measure of how a compound divides between an organic and an aqueous phase. One may read the pKa as the pH at which an ionisable group is half protonated.

Turning to `CC(C)/N=c1\cc2n(-c3ccc(Cl)cc3)c3ccccc3nc-2cc1Nc1ccc(Cl)cc1` [Clofazimine, N,5-bis(4-chlorophenyl)-3-propan-2-ylimino phenazin-2-amine], the clofazimine in plasma result is listed as “a very low level of clofazimine could be detected in plasma” in data set [1] (repeated dose (0.03%, bid, 9 applications)); “no clofazimine was detectable” in data set [1] (single dose groups, majority of the samples); “very low level of clofazimine (close to the detection limit of the instrument)” in data set [1] (single dose groups, minority of samples in the 0.01% and 0.1% groups, 1.5 mg ointment/cm^2, 5% body surface area). Further, the “gender difference in clofazimine absorption” value in data set [1] (topical, male and female) was “No significant gender difference”. Further, the solubility at 24 h in data set [2] turned out to be 710 µg/mL. Further, the solubility is 78.3 mg/mL (≈ 165 mM) in data set [3] (oil or lipid, Heptanoic acid); 80.7 mg/mL (≈ 170 mM) in data set [3] (oil or lipid, Hexanoic acid); 90.2 mg/mL (≈ 191 mM) in data set [3] (oil or lipid, Linoleic acid); 56.3 mg/mL (≈ 119 mM) in data set [3] (oil or lipid, Octanoic acid); 106 mg/mL (≈ 223 mM) in data set [3] (oil or lipid, Oleic acid); 30.2 mg/mL (≈ 63.8 mM) in data set [3] (organic solvent or mixture, Acetic acid). Besides, the solubility stood at 49.2 mg/mL (≈ 104 mM) in data set [3] (organic solvent or mixture, Butyric acid); 58.6 mg/mL (≈ 124 mM) in data set [3] (organic solvent or mixture, Isovaleric acid); 28.2 mg/mL (≈ 59.7 mM) in data set [3] (organic solvent or mixture, Propionic acid). In addition, in data set [4], the “Log P” value is recorded as 7.48. In data set [4], the pKa was 8.37. The Water solubility in data set [4] (virtually insoluble) is 0.225 mg/L. For the same molecule, in data set [5], the “remission of chronic discoid lupus erythematosus” value is recorded as “a majority of patients showed remission”.
